The source of these data is patent publication US20210395239A1 (Hoffmann-La Roche Inc., priority 2018, published 2021).

The assay deals with T1, human TLR7 (Homo sapiens, UniProt Q9NYK1).
T1 construct: host or cells: HEK293 (HEK-Blue hTLR7)
T1 sequence (Q9NYK1 27-1049): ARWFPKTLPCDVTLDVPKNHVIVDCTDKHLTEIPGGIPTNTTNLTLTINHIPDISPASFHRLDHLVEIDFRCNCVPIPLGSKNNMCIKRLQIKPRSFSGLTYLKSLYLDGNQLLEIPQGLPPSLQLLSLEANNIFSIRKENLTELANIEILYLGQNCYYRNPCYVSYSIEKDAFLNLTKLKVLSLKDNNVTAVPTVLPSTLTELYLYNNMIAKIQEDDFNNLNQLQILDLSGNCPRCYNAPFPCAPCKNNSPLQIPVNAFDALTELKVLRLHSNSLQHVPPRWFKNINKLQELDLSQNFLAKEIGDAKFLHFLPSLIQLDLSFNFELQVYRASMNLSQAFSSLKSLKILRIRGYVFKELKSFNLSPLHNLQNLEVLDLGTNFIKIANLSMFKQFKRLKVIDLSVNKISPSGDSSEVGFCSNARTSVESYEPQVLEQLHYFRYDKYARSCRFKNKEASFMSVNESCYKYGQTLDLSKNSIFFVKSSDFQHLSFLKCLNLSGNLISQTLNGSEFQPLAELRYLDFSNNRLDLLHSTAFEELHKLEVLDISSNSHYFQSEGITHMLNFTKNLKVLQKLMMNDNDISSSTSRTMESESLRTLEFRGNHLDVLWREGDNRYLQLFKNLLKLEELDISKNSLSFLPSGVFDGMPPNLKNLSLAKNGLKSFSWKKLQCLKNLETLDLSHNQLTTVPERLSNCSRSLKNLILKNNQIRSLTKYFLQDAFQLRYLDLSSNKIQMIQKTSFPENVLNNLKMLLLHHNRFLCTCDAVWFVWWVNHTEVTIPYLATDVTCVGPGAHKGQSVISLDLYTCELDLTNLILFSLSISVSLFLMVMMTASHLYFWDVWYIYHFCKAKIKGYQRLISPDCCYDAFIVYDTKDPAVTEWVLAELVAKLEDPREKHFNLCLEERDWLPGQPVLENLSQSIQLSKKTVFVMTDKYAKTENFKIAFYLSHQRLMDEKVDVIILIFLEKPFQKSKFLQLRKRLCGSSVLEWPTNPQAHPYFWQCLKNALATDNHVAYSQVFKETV
Nature of the assay: HEK293-Blue-hTLR-7 cells assay (SEAP reporter, R848 stimulation). It counts as cell-based. The note with it: HEK293-Blue-hTLR7 cells, R848, 20 hrs; read-out: HEK/hTLR7 IC50. The method, boiled down:
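HEK293-Blue-hTLR7 cells (NF-κB/AP-1-driven SEAP reporter) were stimulated with R848 alongside serially diluted compound at 1% final DMSO for 20 h at 37 °C. Supernatant SEAP was then developed with QUANTI-Blue for 2 h at 37 °C and absorbance read at 620–655 nm; antagonism is measured as reduced reporter signal.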
For `Cc1cc(N2CCN(C[C@H]3CN(c4ccc(C#N)c5ncccc45)C[C@@H](C)O3)CC2)nc(N2CC(N)C(F)C2)n1` (stereo in doubt) [Example 54, 5-[(2S,6R)-2-[[4-[2-[(3S,4R)-3-amino-4-fluoro-pyrrolidin-1-yl]-6-methyl-pyrimidin-4-yl]piperazin-1-yl]methyl]-6-methyl-morpholin-4-yl]quinoline-8-carbonitrile], the IC50 was 9 nM.
The value for `C[C@@H]1CN(c2ccc(C#N)c3ncccc23)C[C@H](CN2CCC(C#N)(c3ccc(N4CCNCC4)cc3)CC2)O1` [Example 11, 5-[(2S,6R)-2-[[4-cyano-4-(4-piperazin-1-ylphenyl)-1-piperidyl]methyl]-6-methyl-morpholin-4-yl]quinoline-8-carbonitrile] was 23 nM.
`Cc1cc(N2CCN(C[C@H]3CN(c4ccc(C#N)c5ncccc45)C[C@@H](C)O3)CC2)nc(N2CC(N)C(F)(F)C2)n1` (stereo partly drawn) [Example 63, 5-[(2S,6R)-2-[[4-[2-(4-amino-3,3-difluoro-pyrrolidin-1-yl)-6-methyl-pyrimidin-4-yl]piperazin-1-yl]methyl]-6-methyl-morpholin-4-yl]quinoline-8-carbonitrile]: the IC50 worked out at 54 nM.
Then `C[C@@H]1CN(c2ccc(C#N)c3ncccc23)C[C@H](CN2CCN(c3cccc(N4CCNCC(O)C4)n3)CC2)O1` (stereo partly drawn) [Example 41, 5-[(2S,6R)-2-[[4-[6-(6-hydroxy-1,4-diazepan-1-yl)-2-pyridyl]piperazin-1-yl]methyl]-6-methyl-morpholin-4-yl]quinoline-8-carbonitrile], with 81 nM; and `C[C@@H]1CN(c2ccc(C#N)c3ncccc23)C[C@H](CN2CCN(c3cccc(N4CC(N)C(F)C4)n3)CC2)O1` (stereo partly drawn) [Example 40, 5-[(2S,6R)-2-[[4-[6-(3-amino-4-fluoro-pyrrolidin-1-yl)-2-pyridyl]piperazin-1-yl]methyl]-6-methyl-morpholin-4-yl]quinoline-8-carbonitrile], with 35 nM; and `C[C@@H]1CN(c2ccc(C#N)c3ncccc23)C[C@H](CN2CCN(c3cccc(N4CCN(C)CC4)n3)CC2)O1` [Example 33, 5-[(2R,6S)-2-methyl-6-[[4-[6-(4-methylpiperazin-1-yl)-2-pyridyl]piperazin-1-yl]methyl]morpholin-4-yl]quinoline-8-carbonitrile], with 24 nM.
Then `C[C@@H]1CN(c2cc(=O)n(C)c3ncccc23)C[C@H](CN2CC(c3ccc(N4CC(C)(N)C4)cc3)C2)O1` [Example 176, 4-[(2S,6R)-2-[[3-[4-(3-amino-3-methyl-azetidin-1-yl)phenyl]azetidin-1-yl]methyl]-6-methyl-morpholin-4-yl]-1-methyl-1,8-naphthyridin-2-one], with 36 nM; and `Cc1cc(N2CCN(C[C@H]3CN(c4ccc(C#N)c5ncccc45)C[C@@H](C)O3)CC2)nc(N2C[C@@H]3COC[C@@H](C2)N3)n1` [Example 58, 5-[(2R,6S)-2-methyl-6-[[4-[6-methyl-2-[(1R,5R)-3-oxa-7,9-diazabicyclo[3.3.1]nonan-7-yl]pyrimidin-4-yl]piperazin-1-yl]methyl]morpholin-4-yl]quinoline-8-carbonitrile], with 30 nM; and `C[C@@H]1CN(c2ccc(C#N)c3ncccc23)C[C@H](CN2CCN(c3ccnc(N4CCN[C@@H](CO)C4)n3)CC2)O1` [Example 29, 5-[(2S,6R)-2-[[4-[2-[(3R)-3-(hydroxymethyl)piperazin-1-yl]pyrimidin-4-yl]piperazin-1-yl]methyl]-6-methyl-morpholin-4-yl]quinoline-8-carbonitrile], with 16 nM.
The value for `C[C@@H]1CN(c2ccc(C#N)c3ncccc23)C[C@H](CN2CCN(c3ccnc(N[C@H]4CNC[C@H]4F)n3)CC2)O1` [Example 24, 5-[(2S,6R)-2-[[4-[2-[[(3S,4R)-4-fluoropyrrolidin-3-yl]amino]pyrimidin-4-yl]piperazin-1-yl]methyl]-6-methyl-morpholin-4-yl]quinoline-8-carbonitrile] was 38 nM; that for `C[C@@H]1CN(c2ccc(C#N)n3ncc(F)c23)C[C@H](CN2CCN(c3ccc(N4CC5(CN(C)C5)C4)nc3)CC2)O1` [Example 170, 3-fluoro-4-[(2R,6S)-2-methyl-6-[[4-[6-(6-methyl-2,6-diazaspiro[3.3]heptan-2-yl)-3-pyridyl]piperazin-1-yl]methyl]morpholin-4-yl]pyrazolo[1,5-a]pyridine-7-carbonitrile] was 6 nM; that for `C[C@@H]1CN(c2ccc(C#N)c3ncccc23)C[C@H](CN2CCN(c3ccnc(N4CC(N)C4)n3)CC2)O1` [Example 23, 5-[(2S,6R)-2-[[4-[2-(3-aminoazetidin-1-yl)pyrimidin-4-yl]piperazin-1-yl]methyl]-6-methyl-morpholin-4-yl]quinoline-8-carbonitrile] was 50 nM.
As for `C[C@@H]1CN(c2ccc(C#N)c3ncccc23)C[C@H](CN2CCN(c3ccnc(N4CCN(C(=O)C5CCN5)CC4)n3)CC2)O1` (stereo partly drawn) [Example 34, 5-[(2S,6R)-2-[[4-[2-[4-(azetidine-2-carbonyl)piperazin-1-yl]pyrimidin-4-yl]piperazin-1-yl]methyl]-6-methyl-morpholin-4-yl]quinoline-8-carbonitrile], the IC50 was determined as 27 nM.
The value for `Cc1cc(N2CCN(C[C@H]3CN(c4ccc(C(F)(F)F)c5nccnc45)C[C@@H](C)O3)CC2)nc(N2CCNCC2)n1` [Example 65, (2R,6S)-2-methyl-6-[[4-(6-methyl-2-piperazin-1-yl-pyrimidin-4-yl)piperazin-1-yl]methyl]-4-[8-(trifluoromethyl)quinoxalin-5-yl]morpholine] was 15 nM; that for `C[C@@H]1CN(c2ccc(C#N)c3ncccc23)C[C@H](CN2CCN(c3ccnc(N4CCN(C)CC4)n3)CC2)O1` [Example 22, 5-((2R,6S)-2-methyl-6-((4-(2-(4-methylpiperazin-1-yl)pyrimidin-4-yl)piperazin-1-yl)methyl)morpholino)quinoline-8-carbonitrile] was 10 nM; that for `Cc1cc(N2CCN(C[C@H]3CN(c4ccc(C#N)c5nccnc45)C[C@@H](C)O3)CC2)nc(N2CCNCC2)n1` [Example 64, 8-[(2R,6S)-2-methyl-6-[[4-(6-methyl-2-piperazin-1-yl-pyrimidin-4-yl)piperazin-1-yl]methyl]morpholin-4-yl]quinoxaline-5-carbonitrile] was 5 nM.
Then `C[C@@H]1CN(c2ccc(C#N)n3ncc(F)c23)C[C@H](CN2CCN(c3ccc(C[C@@H]4CNCCO4)cc3)CC2)O1` [Example 186, 3-fluoro-4-[(2R,6S)-2-methyl-6-[[4-[4-[[(2R)-morpholin-2-yl]methyl]phenyl]piperazin-1-yl]methyl]morpholin-4-yl]pyrazolo[1,5-a]pyridine-7-carbonitrile], with 18 nM.
Then `Cc1cc(N2CCNCC2)nc(N2CCN(C[C@H]3CN(c4ccc(C#N)c5ncccc45)C[C@@H](C)O3)CC2)n1` [Example 68, 5-[(2R,6S)-2-methyl-6-[[4-(4-methyl-6-piperazin-1-yl-pyrimidin-2-yl)piperazin-1-yl]methyl]morpholin-4-yl]quinoline-8-carbonitrile], with 9 nM; and `C[C@@H]1CN(c2ccc(C#N)c3ncccc23)C[C@H](CN2CCN(c3cccc(N4CCC(N)CC4)n3)CC2)O1` [Example 36, 5-[(2S,6R)-2-[[4-[6-(4-amino-1-piperidyl)-2-pyridyl]piperazin-1-yl]methyl]-6-methyl-morpholin-4-yl]quinoline-8-carbonitrile], with 28 nM.
For `C[C@@H]1CN(c2ccc(C#N)c3ncccc23)C[C@H](CN2CCN(c3cc(N4CCNCC4)ncn3)CC2)O1` [Example 18, 5-[(2R,6S)-2-methyl-6-[[4-(6-piperazin-1-ylpyrimidin-4-yl)piperazin-1-yl]methyl]morpholin-4-yl]quinoline-8-carbonitrile], the IC50 turned out to be 11 nM.
The value for `Cc1cc(N2CCN(C[C@H]3CN(c4ccc(C#N)c5ncccc45)C[C@@H](C)O3)CC2)nc(NC2CNCC2C#N)n1` (stereo partly drawn) [Example 57, 5-[(2S,6R)-2-[[4-[2-[(4-cyanopyrrolidin-3-yl)amino]-6-methyl-pyrimidin-4-yl]piperazin-1-yl]methyl]-6-methyl-morpholin-4-yl]quinoline-8-carbonitrile] was 27 nM.
